For test [1], the target named is T1, JH2 domain of human Tyk2 (Homo sapiens, UniProt P29597).
T1 construct: 10×His-tagged TYK2 JH2 domain (amino acid 575-876)
The experiment in a line: JH2 biochemical assay (TR-FRET probe displacement). The format is binding. In short, it runs like this:
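10×His-tagged human TYK2 JH2 (aa 575-876, 2 nM) incubated 60 min with 2 nM fluorescent probe, 0.1 nM Tb anti-His antibody and compound (10-point 3-fold series from […] top). TR-FRET 520/495 nm ratio, falling with probe displacement, normalized and fitted to a 4-parameter logistic for IC50.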
(In general: Time-resolved FRET reads energy transfer from a long-lived donor to a nearby acceptor.)

Test [2] concerns Tyk2 kinase activity on STAT4. The experiment in a line: pSTAT4 cell assay (MSD, NK92 cells). The conditions noted are these: compounds 1 hr. The format is cell-based. In short, it runs like this: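 NK92, serum-starved; cpd 1 hr, 10-pt 4-fold from 10 μM; IL2 30 ng/mL 15 min; lyse; MSD with anti-STAT4 Abs; IC50 by 4-PL fit.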
Where [3] appears, read: TR-FRET probe displacement, JH2 domain of human Tyk2.

Experimental findings from patent publication US20260258032A1, “TYROSINE KINASE 2 INHIBITORS AND USES THEREOF” (BIOGEN MA INC., priority 2022, published 2026) are described below.

Where a name gives a salt, the structure may show the parent alone.

T1 sequence (P29597 575-876): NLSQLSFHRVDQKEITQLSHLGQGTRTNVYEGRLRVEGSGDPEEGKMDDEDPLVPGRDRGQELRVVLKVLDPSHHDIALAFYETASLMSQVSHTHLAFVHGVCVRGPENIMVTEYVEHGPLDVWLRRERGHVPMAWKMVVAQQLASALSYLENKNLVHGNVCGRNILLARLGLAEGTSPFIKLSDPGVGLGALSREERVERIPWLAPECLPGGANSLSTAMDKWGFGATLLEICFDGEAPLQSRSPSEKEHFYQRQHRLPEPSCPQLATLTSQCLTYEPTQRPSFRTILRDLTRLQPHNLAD

The IC50 is the point on the concentration scale where inhibition reaches its midpoint. Higher therefore signals weaker potency in that assay. As to `CC(=O)Nc1cc2c(cn1)C1(CC1)CN2c1cc(C)nc(OCC23CC(C)(CO2)C3)n1` [Example 371, N-(1′-(6-methyl-2-((4-methyl-2-oxabicyclo[2.1.1]hexan-1-yl)methoxy)pyrimidin-4-yl)-1′,2′-dihydrospiro[cyclopropane-1,3′-pyrrolo[3,2-c]pyridin]-6′-yl)acetamide], the IC50 in test [1] (JH2 biochemical assay) and in test [2] (stimulated 15 minutes) was no less than 1000 nM in each case.

`COC1CC(COc2nc(C)cc(N3CC4(CC4)c4cnc(NC(C)=O)cc43)n2)C1` (stereo not shown) [Example 372, N-(1′-(2-((3-methoxycyclobutyl)methoxy)-6-methylpyrimidin-4-yl)-1′,2′-dihydrospiro[cyclopropane-1,3′-pyrrolo[3,2-c]pyridin]-6′-yl)acetamide]: the IC50 in test [1] (setting [3]) is 100 to 1000 nM; in test [2] (then stimulated 15 minutes), no less than 1000 nM.

Turning to `COC(C)(C)COc1nc(C)cc(N2CC3(CC3)c3cnc(NC(C)=O)cc32)n1` [Example 373, N-(1′-(2-(2-methoxy-2-methylpropoxy)-6-methylpyrimidin-4-yl)-1′,2′-dihydrospiro[cyclopropane-1,3′-pyrrolo[3,2-c]pyridin]-6′-yl)acetamide], the values for the IC50 in test [1] (setting [3]) and in test [2] (then stimulated 15 minutes) were 100 to 1000 nM and no less than 1000 nM, respectively.

`CC(=O)Nc1cc2c(cn1)C1(CC1)CN2c1cc(C)nc(OC2CCOC2)n1` (stereo not shown) [Example 374, N-(1′-(6-methyl-2-((tetrahydrofuran-3-yl)oxy)pyrimidin-4-yl)-1′,2′-dihydrospiro[cyclopropane-1,3′-pyrrolo[3,2-c]pyridin]-6′-yl)acetamide trifluoroacetate]: the IC50 is 10 to 100 nM in test [1] (setting [3]) and no less than 1000 nM in test [2] (then stimulated 15 minutes).

As to `CC(=O)Nc1cc2c(cn1)C1(CC1)CN2c1cc(C)nc(OC2CC(C#N)C2)n1` (stereo not shown) [Example 375, N-(1′-(2-(3-cyanocyclobutoxy)-6-methylpyrimidin-4-yl)-1′,2′-dihydrospiro[cyclopropane-1,3′-pyrrolo[3,2-c]pyridin]-6′-yl)acetamide], the values for the IC50 in test [1] (setting [3]) and in test [2] (then stimulated 15 minutes) were 100 to 1000 nM and no less than 1000 nM, respectively.

As for `COCC1CC(Oc2nc(C)cc(N3CC4(CC4)c4cnc(NC(C)=O)cc43)n2)C1` (stereo not shown) [Example 376, N-(1′-(2-(3-(methoxymethyl)cyclobutoxy)-6-methylpyrimidin-4-yl)-1′,2′-dihydrospiro[cyclopropane-1,3′-pyrrolo[3,2-c]pyridin]-6′-yl)acetamide], the IC50 in test [1] (setting [3]) is 100 to 1000 nM; in test [2] (then stimulated 15 minutes), no less than 1000 nM.

`CC(=O)Nc1cc2c(cn1)C1(CC1)CN2c1cc(C)nc(OC2CC(F)C2)n1` (stereo not shown) [Example 377, N-(1′-(2-(3-fluorocyclobutoxy)-6-methylpyrimidin-4-yl)-1′,2′-dihydrospiro[cyclopropane-1,3′-pyrrolo[3,2-c]pyridin]-6′-yl)acetamide]: the IC50 was 10 to 100 nM in test [1] (setting [3]) and no less than 1000 nM in test [2] (then stimulated 15 minutes).

`COC1(COc2nc(C)cc(N3CC4(CC4)c4cnc(NC(C)=O)cc43)n2)CCC1` [Example 378, N-(1′-(2-((1-methoxycyclobutyl)methoxy)-6-methylpyrimidin-4-yl)-1′,2′-dihydrospiro[cyclopropane-1,3′-pyrrolo[3,2-c]pyridin]-6′-yl)acetamide]: the IC50 in test [1] (setting [3]) was 100 to 1000 nM; in test [2] (then stimulated 15 minutes), no less than 1000 nM.

Take `CC(=O)Nc1cc2c(cn1)C1(CC1)CN2c1cc(C)nc(OC2CCCC2)n1` [Example 379, N-(1′-(2-(cyclopentyloxy)-6-methylpyrimidin-4-yl)-1′,2′-dihydrospiro[cyclopropane-1,3′-pyrrolo[3,2-c]pyridin]-6′-yl)acetamide trifluoroacetate]: the IC50 in test [1] (setting [3]) is 10 to 100 nM; in test [2] (then stimulated 15 minutes) it was no less than 1000 nM.

Take `CC(=O)Nc1cc2c(cn1)C1(CC1)CN2c1cc(-c2ccncc2F)nc(C(C)(F)F)n1` [Example 381, N-(1′-(2-(1,1-difluoroethyl)-6-(3-fluoropyridin-4-yl)pyrimidin-4-yl)-1′,2′-dihydrospiro[cyclopropane-1,3′-pyrrolo[3,2-c]pyridin]-6′-yl)acetamide trifluoroacetate]: the IC50 in test [1] (setting [3]) and in test [2] (then stimulated 15 minutes) was no more than 10 nM in each case.

Regarding `CC(=O)Nc1cc2c(cn1)C1(CC1)CN2c1cc(-c2cnn(C3CCC3)c2)nc(C(C)(F)F)n1` [Example 382, N-(1′-(6-(1-cyclobutyl-1H-pyrazol-4-yl)-2-(1,1-difluoroethyl)pyrimidin-4-yl)-1′,2′-dihydrospiro[cyclopropane-1,3′-pyrrolo[3,2-c]pyridin]-6′-yl)acetamide trifluoroacetate], the half-maximal inhibitory concentration (IC50) in test [1] (setting [3]) and in test [2] (then stimulated 15 minutes) was no more than 10 nM each time.

Consider `CC(=O)Nc1cc2c(cn1)C1(CC1)CN2c1cc(-c2cnn(C(F)F)c2)nc(C(C)(F)F)n1` [Example 383, N-(1′-(2-(1,1-difluoroethyl)-6-(1-(difluoromethyl)-1H-pyrazol-4-yl)pyrimidin-4-yl)-1′,2′-dihydrospiro[cyclopropane-1,3′-pyrrolo[3,2-c]pyridin]-6′-yl)acetamide trifluoroacetate], for which the IC50 was no more than 10 nM in test [1] (setting [3]) and 10 to 100 nM in test [2] (then stimulated 15 minutes).

As to `CC(=O)Nc1cc2c(cn1)C1(CC1)CN2c1cc(-c2cnn(C)c2C(F)F)nc(C(C)(F)F)n1` [Example 385, N-(1′-(2-(1,1-difluoroethyl)-6-(5-(difluoromethyl)-1-methyl-1H-pyrazol-4-yl)pyrimidin-4-yl)-1′,2′-dihydrospiro[cyclopropane-1,3′-pyrrolo[3,2-c]pyridin]-6′-yl)acetamide trifluoroacetate], the IC50 in test [1] (setting [3]) was no more than 10 nM; in test [2] (then stimulated 15 minutes), 10 to 100 nM.

On to `CC(=O)Nc1cc2c(cn1)C1(CC1)CN2c1cc(-c2cnn(C3CC3)c2)nc(C(C)(F)F)n1` [Example 387, N-(1′-(6-(1-cyclopropyl-1H-pyrazol-4-yl)-2-(1,1-difluoroethyl)pyrimidin-4-yl)-1′,2′-dihydrospiro[cyclopropane-1,3′-pyrrolo[3,2-c]pyridin]-6′-yl)acetamide trifluoroacetate], for which the IC50 in test [1] (setting [3]) and in test [2] (then stimulated 15 minutes) was no more than 10 nM each time.

`CC(=O)Nc1cc2c(cn1)C1(CC1)CN2c1cc(-c2cnn(C3COC3)c2)nc(C(C)(F)F)n1` [Example 388, N-(1′-(2-(1,1-difluoroethyl)-6-(1-(oxetan-3-yl)-1H-pyrazol-4-yl)pyrimidin-4-yl)-1′,2′-dihydrospiro[cyclopropane-1,3′-pyrrolo[3,2-c]pyridin]-6′-yl)acetamide]: the IC50 in test [1] (setting [3]) and in test [2] (then stimulated 15 minutes) was no more than 10 nM throughout.

Regarding `CC(=O)Nc1cc2c(cn1)C1(CC1)CN2c1cc(-c2cnn(CC3CC3)c2)nc(C(C)(F)F)n1` [Example 389, N-(1′-(6-(1-(cyclopropylmethyl)-1H-pyrazol-4-yl)-2-(1,1-difluoroethyl)pyrimidin-4-yl)-1′,2′-dihydrospiro[cyclopropane-1,3′-pyrrolo[3,2-c]pyridin]-6′-yl)acetamide], the IC50 in test [1] (setting [3]) and in test [2] (then stimulated 15 minutes) was no more than 10 nM in each case.

Regarding `CC(=O)Nc1cc2c(cn1)C1(CC1)CN2c1cc(-c2cnn(CCN3CCOCC3)c2)nc(C(C)(F)F)n1` [Example 390, N-(1′-(2-(1,1-difluoroethyl)-6-(1-(2-morpholinoethyl)-1H-pyrazol-4-yl)pyrimidin-4-yl)-1′,2′-dihydrospiro[cyclopropane-1,3′-pyrrolo[3,2-c]pyridin]-6′-yl)acetamide trifluoroacetate], the half-maximal inhibitory concentration (IC50) in test [1] (setting [3]) and in test [2] (then stimulated 15 minutes) was no more than 10 nM throughout.

For the compound `CC(=O)Nc1cc2c(cn1)C1(CC1)CN2c1cc(-c2cnn(CCN(C)C)c2)nc(C(C)(F)F)n1` [Example 391, N-(1′-(2-(1,1-difluoroethyl)-6-(1-(2-(dimethylamino)ethyl)-1H-pyrazol-4-yl)pyrimidin-4-yl)-1′,2′-dihydrospiro[cyclopropane-1,3′-pyrrolo[3,2-c]pyridin]-6′-yl)acetamide trifluoroacetate], the IC50 in test [1] (setting [3]) is no more than 10 nM; in test [2] (then stimulated 15 minutes), 10 to 100 nM.

Turning to `CC(=O)Nc1cc2c(cn1)C1(CC1)CN2c1cc(-c2cnn(CC(F)(F)F)c2)nc(C(C)(F)F)n1` [Example 392, N-(1′-(2-(1,1-difluoroethyl)-6-(1-(2,2,2-trifluoroethyl)-1H-pyrazol-4-yl)pyrimidin-4-yl)-1′,2′-dihydrospiro[cyclopropane-1,3′-pyrrolo[3,2-c]pyridin]-6′-yl)acetamide], the IC50 in test [1] (setting [3]) and in test [2] (then stimulated 15 minutes) was no more than 10 nM throughout.

As for `COCCn1cc(-c2cc(N3CC4(CC4)c4cnc(NC(C)=O)cc43)nc(C(C)(F)F)n2)cn1` [Example 394, N-(1′-(2-(1,1-difluoroethyl)-6-(1-(2-methoxyethyl)-1H-pyrazol-4-yl)pyrimidin-4-yl)-1′,2′-dihydrospiro[cyclopropane-1,3′-pyrrolo[3,2-c]pyridin]-6′-yl)acetamide], the IC50 in test [1] (setting [3]) and in test [2] (then stimulated 15 minutes) was no more than 10 nM in each case.

`CC(=O)Nc1cc2c(cn1)C1(CC1)CN2c1cc(-c2cn[nH]c2)nc(C(C)(F)F)n1` [Example 395, N-(1′-(2-(1,1-difluoroethyl)-6-(1H-pyrazol-4-yl)pyrimidin-4-yl)-1′,2′-dihydrospiro[cyclopropane-1,3′-pyrrolo[3,2-c]pyridin]-6′-yl)acetamide trifluoroacetate]: the IC50 in test [1] (setting [3]) was no more than 10 nM; in test [2] (then stimulated 15 minutes), 10 to 100 nM.

Consider `CC(=O)Nc1cc2c(cn1)C1(CC1)CN2c1cc(C)nc(C2COC2)n1` [Example 396, N-(1′-(6-methyl-2-(oxetan-3-yl)pyrimidin-4-yl)-1′,2′-dihydrospiro[cyclopropane-1,3′-pyrrolo[3,2-c]pyridin]-6′-yl)acetamide], for which the IC50 in test [1] (setting [3]) was 10 to 100 nM; in test [2] (then stimulated 15 minutes), no less than 1000 nM.

Consider `COCc1cc(N2CC3(CC3)c3cnc(NC(C)=O)cc32)nc(C(C)(F)F)n1` [Example 397, N-(1′-(2-(1,1-difluoroethyl)-6-(methoxymethyl)pyrimidin-4-yl)-1′,2′-dihydrospiro[cyclopropane-1,3′-pyrrolo[3,2-c]pyridin]-6′-yl)acetamide], for which the figures for the IC50 in test [1] (setting [3]) and in test [2] (then stimulated 15 minutes) were no more than 10 nM and 100 to 1000 nM, respectively.
